Results as given in ChEMBL document CHEMBL3045273, “Synthesis, characterization, and pharmacological evaluation of 1-[2-(6-nitro-4-oxo-2-phenyl-4H-quinazolin-3-yl)-ethyl]-3-phenyl ureas” (2013).
Converted amounts (≈) assume the structure as drawn.

Assays:
[1] = tested on: Escherichia coli; experiment: microbe, parasite or virus in culture; conditions: ATCC 25922, 24 h, read-out: DIZ
Description: Antibacterial activity against Escherichia coli ATCC 25922 assessed as growth inhibition at 100 ug/ml after 24 hr by Kirby-Bauer disk diffusion method

[2] = tested on: Bacillus subtilis; experiment: Antibacterial activity against Bacillus subtilis ATCC 11774 assessed as growth inhibition after 24 hr by serial broth dilution method; assay type: functional; conditions: ATCC 11774, 24 h
[3] = tested on: Candida albicans; experiment: Antifungal activity against Candida albicans ATCC 66027 assessed as growth inhibition at 20 ug/ml after 24 hr by Kirby-Bauer disk diffusion method; assay type: functional; conditions: ATCC 66027, 24 h, read-out: DIZ
[4] = tested on: Escherichia coli; experiment: Antibacterial activity against Escherichia coli ATCC 25922 assessed as initial concentration required for appearance of zone of inhibition after 24 hr; assay type: functional
[5] = tested on: Bacillus subtilis; experiment: Antibacterial activity against Bacillus subtilis ATCC 11774 assessed as growth inhibition at 100 ug/ml after 24 hr by Kirby-Bauer disk diffusion method; assay type: functional; conditions: ATCC 11774, 24 h, read-out: DIZ
[6] = tested on: Staphylococcus aureus; experiment: Antibacterial activity against Staphylococcus aureus ATCC 25923 assessed as growth inhibition at 300 ug/ml after 24 hr by Kirby-Bauer disk diffusion method; assay type: functional; conditions: ATCC 25923, 24 h, read-out: DIZ
[7] = tested on: Bacillus subtilis; experiment: Antibacterial activity against Bacillus subtilis ATCC 11774 assessed as growth inhibition at 300 ug/ml after 24 hr by Kirby-Bauer disk diffusion method; assay type: functional; conditions: ATCC 11774, 24 h, read-out: DIZ
[8] = tested on: Candida albicans; experiment: Antifungal activity against Candida albicans ATCC 66027 assessed as initial concentration required for appearance of zone of inhibition after 24 hr; assay type: functional
[9] = tested on: Pseudomonas aeruginosa; experiment: Antibacterial activity against Pseudomonas aeruginosa ATCC 27853 assessed as growth inhibition at 100 ug/ml after 24 hr by Kirby-Bauer disk diffusion method; assay type: functional; conditions: ATCC 27853, 24 h, read-out: DIZ
[10] = tested on: Candida albicans; experiment: Antifungal activity against Candida albicans ATCC 66027 assessed as growth inhibition at 100 ug/ml after 24 hr by Kirby-Bauer disk diffusion method; assay type: functional; conditions: ATCC 66027, 24 h, read-out: DIZ
[11] = tested on: Staphylococcus aureus; experiment: Antibacterial activity against Staphylococcus aureus ATCC 25923 assessed as growth inhibition at 100 ug/ml after 24 hr by Kirby-Bauer disk diffusion method; assay type: functional; conditions: ATCC 25923, 24 h, read-out: DIZ
[12] = tested on: Staphylococcus aureus; experiment: Antibacterial activity against Staphylococcus aureus ATCC 25923 assessed as growth inhibition after 24 hr by serial broth dilution method; assay type: functional; conditions: ATCC 25923, 24 h
[13] = tested on: Bacillus subtilis; experiment: Antibacterial activity against Bacillus subtilis ATCC 11774 assessed as initial concentration required for appearance of zone of inhibition after 24 hr; assay type: functional
[14] = tested on: Candida albicans; experiment: Antifungal activity against Candida albicans ATCC 66027 assessed as growth inhibition after 24 hr by serial broth dilution method; assay type: functional; conditions: ATCC 66027, 24 h
[15] = tested on: Escherichia coli; experiment: Antibacterial activity against Escherichia coli ATCC 25922 assessed as growth inhibition after 24 hr by serial broth dilution method; assay type: functional; conditions: ATCC 25922, 24 h
[16] = tested on: Escherichia coli; experiment: microbe, parasite or virus in culture; conditions: ATCC 25922, 24 h, read-out: DIZ; remark: listed apart in the source
Description: Antibacterial activity against Escherichia coli ATCC 25922 assessed as growth inhibition at 300 ug/ml after 24 hr by Kirby-Bauer disk diffusion method

[17] = tested on: Staphylococcus aureus; experiment: Antibacterial activity against Staphylococcus aureus ATCC 25923 assessed as initial concentration required for appearance of zone of inhibition after 24 hr; assay type: functional
[18] = tested on: Pseudomonas aeruginosa; experiment: Antibacterial activity against Pseudomonas aeruginosa ATCC 27853 assessed as growth inhibition after 24 hr by serial broth dilution method; assay type: functional; conditions: ATCC 27853, 24 h
[19] = tested on: Pseudomonas aeruginosa; experiment: Antibacterial activity against Pseudomonas aeruginosa ATCC 27853 assessed as growth inhibition at 300 ug/ml after 24 hr by Kirby-Bauer disk diffusion method; assay type: functional; conditions: ATCC 27853, 24 h, read-out: DIZ
[20] = tested on: Pseudomonas aeruginosa; experiment: Antibacterial activity against Pseudomonas aeruginosa ATCC 27853 assessed as initial concentration required for appearance of zone of inhibition after 24 hr; assay type: functional
[21] = tested on: Candida albicans; experiment: Antifungal activity against Candida albicans ATCC 66027 assessed as growth inhibition at 300 ug/ml after 24 hr by Kirby-Bauer disk diffusion method; assay type: functional; conditions: ATCC 66027, 24 h, read-out: DIZ
[22] = tested on: Escherichia coli; experiment: Antibacterial activity against Escherichia coli ATCC 25922 assessed as growth inhibition at 70 ug/ml after 24 hr by Kirby-Bauer disk diffusion method; assay type: functional; conditions: ATCC 25922, 24 h, read-out: DIZ

- MIC [2]: 100 µg/mL (≈ 222 µM)
- MIC [12]: 100 µg/mL (≈ 222 µM)
- MIC [14]: 10 µg/mL (≈ 22.2 µM)
- MIC [15]: 40 µg/mL (≈ 89 µM)
- MIC [18]: 70 µg/mL (≈ 156 µM)
SMILES: CC1CCC(NC(=O)NCCn2c(-c3ccccc3)nc3ccc([N+](=O)[O-])cc3c2=O)CC1 (configuration not stated)
- zone of inhibition at 100 µg/mL [1]: 13 mm
- zone of inhibition at 20 µg/mL [3]: 11 mm
- Activity [4]: 70 µg/mL
- zone of inhibition at 100 µg/mL [5]: 11 mm
- zone of inhibition at 300 µg/mL [6]: 14 mm
- zone of inhibition at 300 µg/mL [7]: 14 mm
- Activity [8]: 20 µg/mL
- zone of inhibition at 100 µg/mL [9]: 12 mm
- zone of inhibition at 100 µg/mL [10]: 15 mm
- zone of inhibition at 100 µg/mL [11]: 11 mm
- Activity [13]: 100 µg/mL
- zone of inhibition at 300 µg/mL [16]: 17 mm
- Activity [17]: 100 µg/mL
- zone of inhibition at 300 µg/mL [19]: 21 mm
- Activity [20]: 70 µg/mL
- zone of inhibition at 300 µg/mL [21]: 20 mm
- zone of inhibition at 70 µg/mL [22]: 11 mm
